Data from patent publication US9580463B2 (BRISTOL-MYERS SQUIBB COMPANY, priority 2013, dated 2017).
Read-outs that look alike come from different tables or passages of the source.

Tests used:
[1] = rcm bond, 15-membered ring, Hoveyda-Grubbs II, DCE, 80.0 °C
[2] = test system: HCV genotype 1a (H77 strain) replicon in HUH-7 cells; assay: HCV replicon luciferase reporter assay, genotype 1a; type: cell-based; conditions: Hepatitis C virus, 72 h, genotype 1a replicon, 3 days incubation
Procedure, shortened: (§1)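 Twenty-point, threefold compound titrations (0.5% DMSO) were incubated 3 days at 37 °C with 3.0×10^3 HUH-7 cells/well in 4% FCS. The cells stably carried luciferase replicons: genotype 1b Con1 (S1179I) or 1a H77 (NS3 P1496L, NS5A S2204I). Renilla signal was read after 2 h with 7.5 μM EnduRen, and EC50 was taken from a four-parameter logistic fit. Cytotoxicity (CC50) was measured by Cell Titer-Blue, 8 h.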

[3] = test system: HCV genotype 1b (Con1) replicon in HUH-7 cells; assay: HCV replicon luciferase reporter assay, genotype 1b; type: cell-based; conditions: Hepatitis C virus, 72 h, genotype 1b replicon, 3 days incubation
Procedure, shortened: as §1

Structure (SMILES) | EC50 ([2]; read-out: LE_1a (EC50, range)) [nM] | EC50 ([3]; read-out: LE_1b (EC50, range)) [nM] | other results
COC[C@@H]1CC(C)CC/C=C\[C@@H]2C[C@@]2(C(=O)NS(=O)(=O)C2(C)CC2)NC(=O)[C@@H]2C[C@@H](O)CN2C(=O)[C@H]1NC(=O)OC(C)(C)C (stereo partly drawn) |  |  | ring closure, isolated yield ([1]; from C=CCCC(C)C[C@@H](COC)[C@H](NC(=O)OC(C)(C)C)C(=O)N1C[C@H](O)C[C@H]1C(=O)N[C@]1(C(=O)NS(=O)(=O)C2(C)CC2)C[C@H]1C=C, 7.5 mM): 76%
COC[C@@H]1CC(C)CC/C=C\[C@@H]2C[C@@]2(C(=O)NS(=O)(=O)C2(CF)CC2)NC(=O)[C@@H]2C[C@@H](O)CN2C(=O)[C@H]1NC(=O)OC(C)(C)C (stereo partly drawn) |  |  | ring closure, isolated yield ([1]; from tert-butyl (2S,3R)-1-(((2S,4R)-2-(((1R,2S)-1-(((1-(fluoromethyl)cyclopropyl)sulfonyl)carbamoyl)-2-vinylcyclopropyl)carbamoyl)-4-hydroxypyrrolidin-1-yl)-3-(methoxymethyl)-5-methyl-1-oxonon-8-en-2-yl)carbamate, 5.0 mM): 45%
COC[C@@H]1CC(C)CC/C=C\[C@@H]2C[C@@]2(C(=O)NS(=O)(=O)C2CC2)NC(=O)[C@@H]2C[C@@H](O)CN2C(=O)[C@H]1NC(=O)OC(C)(C)C (stereo partly drawn) |  |  | ring closure, isolated yield ([1]; from C=CCCC(C)C[C@@H](COC)[C@H](NC(=O)OC(C)(C)C)C(=O)N1C[C@H](O)C[C@H]1C(=O)N[C@]1(C(=O)NS(=O)(=O)C2CC2)C[C@H]1C=C, 9.2 mM, 4.0 h): 71%
COC[C@@H]1CCCC/C=C\[C@@H]2C[C@@]2(C(=O)NS(=O)(=O)C2(C)CC2)NC(=O)[C@@H]2C[C@@H](O)CN2C(=O)[C@H]1NC(=O)OC(C)(C)C |  |  | ring closure, isolated yield ([1]; from C=CCCCC[C@@H](COC)[C@H](NC(=O)OC(C)(C)C)C(=O)N1C[C@H](O)C[C@H]1C(=O)N[C@]1(C(=O)NS(=O)(=O)C2(C)CC2)C[C@H]1C=C, 24.4 mM, 2.0 h): 55%
COC[C@@H]1CCCC/C=C\[C@@H]2C[C@@]2(C(=O)NS(=O)(=O)C2CC2)NC(=O)[C@@H]2C[C@@H](O)CN2C(=O)[C@H]1NC(=O)OC(C)(C)C |  |  | ring closure, isolated yield ([1]; from C=CCCCC[C@@H](COC)[C@H](NC(=O)OC(C)(C)C)C(=O)N1C[C@H](O)C[C@H]1C(=O)N[C@]1(C(=O)NS(=O)(=O)C2CC2)C[C@H]1C=C, 10.8 mM, 2.0 h): 52%
COC[C@@H]1C[C@H](C)CC/C=C\[C@@H]2C[C@@]2(C(=O)NS(=O)(=O)C2(CF)CC2)NC(=O)[C@@H]2C[C@@H](Oc3nc4cc(OC)ccc4nc3C(F)(F)F)CN2C(=O)[C@H]1NC(=O)OC(C)(C)C(F)(F)F [Compound 1037, 1,1,1-trifluoro-2-methylpropan-2-yl ((2R,6S,7R,9R,13aS,14aR,16aS,Z)-14a-(((1-(fluoromethyl)cyclopropyl)sulfonyl)carbamoyl)-2-((7-methoxy-3-(trifluoromethyl)quinoxalin-2-yl)oxy)-7-(methoxymethyl)-9-methyl-5,16-dioxo-1,2,3,5,6,7,8,9,10,11,13a,14,14a,15,16,16a-hexadecahydrocyclopropa[e]pyrrolo[1,2-a][1,4]diazacyclopentadecin-6-yl)carbamate] | 1.01 to 5 | 1.01 to 5 | 
COC[C@@H]1C[C@@H](C)CC/C=C\[C@@H]2C[C@@]2(C(=O)NS(=O)(=O)C2(CF)CC2)NC(=O)[C@@H]2C[C@@H](Oc3nc4cc(OC)ccc4nc3C(F)(F)F)CN2C(=O)[C@H]1NC(=O)OC(C)(C)C(F)(F)F [Compound 1038, 1,1,1-trifluoro-2-methylpropan-2-yl ((2R,6S,7R,9S,13aS,14aR,16aS,Z)-14a-(((1-(fluoromethyl)cyclopropyl)sulfonyl)carbamoyl)-2-((7-methoxy-3-(trifluoromethyl)quinoxalin-2-yl)oxy)-7-(methoxymethyl)-9-methyl-5,16-dioxo-1,2,3,5,6,7,8,9,10,11,13a,14,14a,15,16,16a-hexadecahydrocyclopropa[e]pyrrolo[1,2-a][1,4]diazacyclopentadecin-6-yl)carbamate] | 35 to 620 | 5.01 to 35 | EC50 ([2]; read-out: LE_1a (EC50)): 35 nM; EC50 ([3]; read-out: LE_1b (EC50)): 14.7 nM
COC[C@@H]1C[C@H](C)CC/C=C\[C@@H]2C[C@@]2(C(=O)NS(=O)(=O)C2(CF)CC2)NC(=O)[C@@H]2C[C@@H](Oc3nc4cc(OC)ccc4nc3C(C)C)CN2C(=O)[C@H]1NC(=O)OC(C)(C)C(F)(F)F [Compound 1039] | 5.01 to 35 | 1.01 to 5 | 
COC[C@@H]1C[C@@H](C)CC/C=C\[C@@H]2C[C@@]2(C(=O)NS(=O)(=O)C2(CF)CC2)NC(=O)[C@@H]2C[C@@H](Oc3nc4cc(OC)ccc4nc3C(C)C)CN2C(=O)[C@H]1NC(=O)OC(C)(C)C(F)(F)F [Compound 1040, 1,1,1-trifluoro-2-methylpropan-2-yl ((2R,6S,7R,9S,13aS,14aR,16aS,Z)-14a-(((1-(fluoromethyl)cyclopropyl)sulfonyl)carbamoyl)-2-((3-isopropyl-7-methoxyquinoxalin-2-yl)oxy)-7-(methoxymethyl)-9-methyl-5,16-dioxo-1,2,3,5,6,7,8,9,10,11,13a,14,14a,15,16,16a-hexadecahydrocyclopropa[e]pyrrolo[1,2-a][1,4]diazacyclopentadecin-6-yl)carbamate] | 35 to 620 | 35 to 620 | 
COC[C@@H]1C[C@H](C)CC/C=C\[C@@H]2C[C@@]2(C(=O)NS(=O)(=O)C2CC2)NC(=O)[C@@H]2C[C@@H](Oc3nc4cc(OC)ccc4nc3C(F)(F)F)CN2C(=O)[C@H]1NC(=O)OC(C)(C)C(F)(F)F [Compound 1041, 1,1,1-trifluoro-2-methylpropan-2-yl ((2R,6S,7R,9R,13aS,14aR,16aS,Z)-14a-((cyclopropylsulfonyl)carbamoyl)-2-((7-methoxy-3-(trifluoromethyl)quinoxalin-2-yl)oxy)-7-(methoxymethyl)-9-methyl-5,16-dioxo-1,2,3,5,6,7,8,9,10,11,13a,14,14a,15,16,16a-hexadecahydrocyclopropa[e]pyrrolo[1,2-a][1,4]diazacyclopentadecin-6-yl)carbamate] | 0.51 to 1 | 0.51 to 1 | EC50 ([2]; read-out: LE_1a (EC50)): 0.61 nM; EC50 ([3]; read-out: LE_1b (EC50)): 0.75 nM
COC[C@@H]1C[C@@H](C)CC/C=C\[C@@H]2C[C@@]2(C(=O)NS(=O)(=O)C2CC2)NC(=O)[C@@H]2C[C@@H](Oc3nc4cc(OC)ccc4nc3C(F)(F)F)CN2C(=O)[C@H]1NC(=O)OC(C)(C)C(F)(F)F [Compound 1042, 1,1,1-trifluoro-2-methylpropan-2-yl ((2R,6S,7R,9S,13aS,14aR,16aS,Z)-14a-((cyclopropylsulfonyl)carbamoyl)-2-((7-methoxy-3-(trifluoromethyl)quinoxalin-2-yl)oxy)-7-(methoxymethyl)-9-methyl-5,16-dioxo-1,2,3,5,6,7,8,9,10,11,13a,14,14a,15,16,16a-hexadecahydrocyclopropa[e]pyrrolo[1,2-a][1,4]diazacyclopentadecin-6-yl)carbamate] | 5.01 to 35 | 1.01 to 5 | 
